The values below come from ChEMBL document CHEMBL1124716, “Structure and activity of hydrogenated derivatives of (+)-5-methyl-10,11-dihydro-5H-dibenzo[a,d]cyclohepten-5,10-imine (MK-801)” (J Med Chem, 1990).

Assay [1] can be described thus: N-methyl-D-aspartate glutamate receptor antagonist activity was determined in rat cortical slice preparation. It counts as functional.
Assay [2] in a line: Ability to inhibit [3H]-MK-801 binding to N-methyl-D-aspartate glutamate receptor of rat cortical membranes.

A word on the Kb: it is the equilibrium dissociation constant of an antagonist, usually derived from a functional assay. Low readings indicate higher antagonist affinity, high ones lower antagonist affinity. Usually IC50 stands for the concentration needed to halve the response being measured. Lower therefore signals inhibition by little substance.

With `CC12N[C@H](CC3=C1CCCC3)C1CCCCC12` (stereo not given in full), the Kb in assay [1] worked out at 280 nM. In addition, the IC50 in assay [2] came out at 80 nM. `OCCC12N[C@H](Cc3ccccc31)C1CCCCC12` (stereo not given in full) showed a Kb in assay [1] of 240 nM. Also, the IC50 in assay [2] was found to be 220 nM. Take `CC12N[C@H](Cc3ccccc31)C1=C2CC=CC1`: in assay [2], the IC50 was found to be 20 nM. Still for that read-out and setting: as for `CN1C2(C)c3ccccc3C1(C)C1CCCCC12` (stereo not given), the figure is 111 nM.

For `CC12N[C@@H](C3CCCCC31)[C@H](O)c1ccccc12` (stereo not given in full), the Kb in assay [1] was 250 nM. The molecule further registered an IC50 in assay [2] of 69 nM. Taken in the same sequence, the figures for `CC12N[C@H](CC3=C1CCCC3)c1ccccc12` were 270 nM and 193 nM.

As to `CN1[C@@H]2Cc3ccccc3[C@@]1(C)C1CCCCC12` (stereo not given in full), in assay [1], the Kb was found to be 290 nM. Further, the IC50 in assay [2] stood at 96 nM. Taken in the same sequence, the figures for `CC12NC(Cc3ccccc31)CC1CCCCC12` (stereo not given) were 250 nM and 164 nM. On the same counts, the results for `CC12N[C@H](CC3CCCCC31)c1ccccc12` (stereo not given in full) are 130 nM and 188 nM. In assay [1], `OCCC12N[C@](O)(Cc3ccccc31)C1CCCCC12` (stereo not given in full) showed a Kb of 770 nM. This molecule had an IC50 in assay [2] of 396 nM. Taken in the same sequence, the figures for `CC12NC(Cc3ccccc31)c1ccccc12` (single isomer, unassigned) were 130 nM and 30.5 nM. Taken in the same sequence, the figures for `CC12N[C@H](Cc3ccccc31)C1=CC=CCC12` (stereo not given in full) were 270 nM and 21 nM. `COc1ccc2c(c1)C1(C)N[C@@H]2CC2CCCCC21` (stereo not given in full) came in with an antagonist dissociation constant (Kb) in assay [1] of 310 nM. In assay [2], this molecule returned an IC50 of 240 nM.

As for `CC12N[C@H](CC3CCCCC31)C1CCCCC12` (stereo not given in full), the Kb in assay [1] was found to be 800 nM. In assay [2], the IC50 stood at 35 nM.

Consider `CC12N[C@H](Cc3ccccc31)C1CCCCC12` (stereo not given in full), for which, in assay [1], the Kb worked out at 230 nM. In assay [2], this molecule registered an IC50 of 16 nM. In turn, `CC12N[C@H](Cc3ccccc31)C1=CCCCC12` (stereo not given in full) yielded a Kb in assay [1] of 300 nM. For the same molecule, the IC50 in assay [2] was found to be 60 nM.
